One block for each molecule: values may come before it.
Legend:
[1] = target: T1, Gamma-aminobutyric acid receptor subunit alpha-1 (Homo sapiens, UniProt P14867); assay: Selectivity interaction (GPCR panel (PDSP screen)) EUB0000548a GABRA1
T1 sequence (P14867 whole entry): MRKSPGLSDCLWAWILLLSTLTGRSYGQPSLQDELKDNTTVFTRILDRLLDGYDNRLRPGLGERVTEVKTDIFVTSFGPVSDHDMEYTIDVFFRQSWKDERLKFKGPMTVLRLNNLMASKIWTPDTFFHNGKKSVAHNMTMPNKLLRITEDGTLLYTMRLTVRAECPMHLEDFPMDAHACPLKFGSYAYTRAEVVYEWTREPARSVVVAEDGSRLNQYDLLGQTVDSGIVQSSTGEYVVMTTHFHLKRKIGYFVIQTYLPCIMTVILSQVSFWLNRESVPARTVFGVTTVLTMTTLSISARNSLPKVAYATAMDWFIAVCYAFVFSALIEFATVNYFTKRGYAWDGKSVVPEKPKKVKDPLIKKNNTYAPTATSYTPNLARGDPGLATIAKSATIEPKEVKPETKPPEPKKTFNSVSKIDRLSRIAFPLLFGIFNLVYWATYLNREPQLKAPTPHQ

[2] = target: T2, Myosin-IIIb (Homo sapiens) (UniProt Q8WXR4); assay: Selectivity interaction (KinomeScan (DiscoverX)) EUB0000548a MYO3B; settings: at 1 µM
T2 sequence (whole entry): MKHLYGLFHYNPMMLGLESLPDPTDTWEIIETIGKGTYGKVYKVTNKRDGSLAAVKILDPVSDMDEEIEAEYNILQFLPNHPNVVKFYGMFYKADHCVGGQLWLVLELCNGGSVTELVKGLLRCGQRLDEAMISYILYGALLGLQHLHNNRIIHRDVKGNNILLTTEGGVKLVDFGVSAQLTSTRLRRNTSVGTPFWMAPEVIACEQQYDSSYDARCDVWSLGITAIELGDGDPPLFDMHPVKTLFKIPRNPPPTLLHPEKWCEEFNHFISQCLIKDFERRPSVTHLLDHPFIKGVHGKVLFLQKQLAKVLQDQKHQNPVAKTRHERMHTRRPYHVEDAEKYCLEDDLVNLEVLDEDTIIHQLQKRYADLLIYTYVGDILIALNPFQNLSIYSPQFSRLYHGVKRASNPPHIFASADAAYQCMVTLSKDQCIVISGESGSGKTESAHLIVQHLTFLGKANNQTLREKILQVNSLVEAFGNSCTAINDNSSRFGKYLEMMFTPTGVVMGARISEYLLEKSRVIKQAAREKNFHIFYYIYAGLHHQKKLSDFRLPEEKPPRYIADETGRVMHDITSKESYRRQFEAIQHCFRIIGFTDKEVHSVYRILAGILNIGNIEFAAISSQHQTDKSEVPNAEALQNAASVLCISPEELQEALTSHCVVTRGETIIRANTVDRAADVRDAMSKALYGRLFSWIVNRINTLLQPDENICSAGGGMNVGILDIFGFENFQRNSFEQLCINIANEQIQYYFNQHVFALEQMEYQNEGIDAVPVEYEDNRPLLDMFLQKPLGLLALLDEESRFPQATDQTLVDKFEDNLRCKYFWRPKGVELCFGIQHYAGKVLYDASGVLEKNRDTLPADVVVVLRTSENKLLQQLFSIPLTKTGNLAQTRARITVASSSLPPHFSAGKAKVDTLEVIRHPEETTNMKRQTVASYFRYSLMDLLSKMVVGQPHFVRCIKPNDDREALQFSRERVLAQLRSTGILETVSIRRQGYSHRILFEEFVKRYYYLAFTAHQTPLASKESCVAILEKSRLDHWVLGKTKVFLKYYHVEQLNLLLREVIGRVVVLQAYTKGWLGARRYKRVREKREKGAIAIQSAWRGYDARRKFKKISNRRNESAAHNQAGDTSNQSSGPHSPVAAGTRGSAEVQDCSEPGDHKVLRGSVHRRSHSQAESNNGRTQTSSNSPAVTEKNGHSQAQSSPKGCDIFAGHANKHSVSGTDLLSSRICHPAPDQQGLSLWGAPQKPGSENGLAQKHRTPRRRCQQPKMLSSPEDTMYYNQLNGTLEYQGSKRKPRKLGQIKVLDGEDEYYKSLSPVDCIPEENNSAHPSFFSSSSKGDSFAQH

[3] = target: Receptor-type tyrosine-protein kinase FLT3 (Homo sapiens) (UniProt P36888); assay: Selectivity interaction (KinomeScan (DiscoverX)) EUB0000548a FLT3; settings: at 1 µM
Sequence of Receptor-type tyrosine-protein kinase FLT3 (Homo sapiens) (P36888 whole entry): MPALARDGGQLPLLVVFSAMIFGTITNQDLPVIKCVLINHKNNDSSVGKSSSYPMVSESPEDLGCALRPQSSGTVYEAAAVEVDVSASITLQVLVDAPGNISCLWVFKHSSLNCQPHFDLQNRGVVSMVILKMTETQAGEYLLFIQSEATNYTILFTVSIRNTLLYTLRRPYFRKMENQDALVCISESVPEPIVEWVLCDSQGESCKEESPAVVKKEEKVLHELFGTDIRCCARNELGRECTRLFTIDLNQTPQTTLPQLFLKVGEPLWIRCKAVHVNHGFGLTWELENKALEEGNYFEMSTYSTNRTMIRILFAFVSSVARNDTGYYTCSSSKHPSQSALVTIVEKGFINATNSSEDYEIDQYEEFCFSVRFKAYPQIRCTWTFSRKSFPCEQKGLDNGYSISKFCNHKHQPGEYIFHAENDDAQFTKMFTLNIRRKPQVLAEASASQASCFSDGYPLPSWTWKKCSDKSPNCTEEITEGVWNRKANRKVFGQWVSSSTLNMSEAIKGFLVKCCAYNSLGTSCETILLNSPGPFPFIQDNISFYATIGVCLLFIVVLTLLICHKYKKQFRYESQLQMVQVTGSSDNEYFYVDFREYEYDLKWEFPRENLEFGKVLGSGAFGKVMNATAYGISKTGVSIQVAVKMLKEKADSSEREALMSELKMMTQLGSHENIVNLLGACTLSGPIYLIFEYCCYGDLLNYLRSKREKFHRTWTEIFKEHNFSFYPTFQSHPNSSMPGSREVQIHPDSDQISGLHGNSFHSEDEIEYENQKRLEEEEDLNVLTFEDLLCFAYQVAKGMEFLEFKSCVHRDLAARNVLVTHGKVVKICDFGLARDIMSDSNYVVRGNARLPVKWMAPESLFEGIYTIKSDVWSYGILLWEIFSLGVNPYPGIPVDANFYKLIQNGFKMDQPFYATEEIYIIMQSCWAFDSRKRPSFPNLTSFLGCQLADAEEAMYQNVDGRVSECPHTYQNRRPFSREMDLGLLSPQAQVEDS

[4] = target: T1, Gamma-aminobutyric acid receptor subunit alpha-1; assay: Selectivity interaction (GPCR panel (PDSP screen)) EUB0000587a GABRA1
[5] = target: Chymotrypsin-like elastase family member 1 (Homo sapiens, UniProt Q9UNI1); assay: Selectivity interaction (Serine protease panel) EUB0000735a CELA1
Sequence of Chymotrypsin-like elastase family member 1 (Q9UNI1 whole entry): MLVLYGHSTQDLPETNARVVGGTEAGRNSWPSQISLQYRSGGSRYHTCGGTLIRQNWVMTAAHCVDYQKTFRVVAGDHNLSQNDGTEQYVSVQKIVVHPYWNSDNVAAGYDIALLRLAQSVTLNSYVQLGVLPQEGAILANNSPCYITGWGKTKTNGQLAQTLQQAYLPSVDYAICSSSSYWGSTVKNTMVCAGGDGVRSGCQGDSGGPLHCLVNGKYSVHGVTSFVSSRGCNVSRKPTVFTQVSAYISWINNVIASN

Chymase = Chymase (Homo sapiens, UniProt P23946); assay: Selectivity interaction (Serine protease panel) EUB0000735a CMA1
Chymotrypsin-C = Chymotrypsin-C (Homo sapiens, UniProt Q99895); assay: Selectivity interaction (Serine protease panel) EUB0000735a CTRC
Cathepsin G = Cathepsin G (Homo sapiens, UniProt P08311); assay: Selectivity interaction (Serine protease panel) EUB0000735a CTSG
Coagulation factor XI = Coagulation factor XI (Homo sapiens, UniProt P03951); assay: Selectivity interaction (Serine protease panel) EUB0000735a F11
Sequence of Coagulation factor XI (P03951 19-387 limits assumed): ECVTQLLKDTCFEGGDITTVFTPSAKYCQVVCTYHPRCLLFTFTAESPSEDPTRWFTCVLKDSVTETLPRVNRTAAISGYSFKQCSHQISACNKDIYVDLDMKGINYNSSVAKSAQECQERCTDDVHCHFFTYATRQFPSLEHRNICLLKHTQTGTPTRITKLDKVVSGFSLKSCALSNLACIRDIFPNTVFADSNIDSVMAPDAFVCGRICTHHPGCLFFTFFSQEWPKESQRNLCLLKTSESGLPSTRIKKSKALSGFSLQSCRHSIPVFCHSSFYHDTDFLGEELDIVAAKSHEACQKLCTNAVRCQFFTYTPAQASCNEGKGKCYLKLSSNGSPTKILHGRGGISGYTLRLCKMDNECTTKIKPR
Sequence of Coagulation factor XI (P03951 388-625 limits assumed): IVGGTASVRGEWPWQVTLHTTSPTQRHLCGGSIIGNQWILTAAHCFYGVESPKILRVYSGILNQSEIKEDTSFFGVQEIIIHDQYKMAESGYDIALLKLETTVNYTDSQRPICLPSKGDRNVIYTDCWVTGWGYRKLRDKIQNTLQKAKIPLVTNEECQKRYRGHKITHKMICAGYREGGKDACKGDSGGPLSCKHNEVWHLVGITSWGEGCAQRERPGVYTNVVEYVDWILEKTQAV

Coagulation factor VII = Coagulation factor VII (Homo sapiens, UniProt P08709); assay: Selectivity interaction (Serine protease panel) EUB0000735a F7
Coagulation factor IX = Coagulation factor IX (Homo sapiens, UniProt P00740); assay: Selectivity interaction (Serine protease panel) EUB0000735a F9
Kallikrein-1 = Kallikrein-1 (Homo sapiens, UniProt P06870); assay: Selectivity interaction (Serine protease panel) EUB0000735a KLK1
Kallikrein-12 = Kallikrein-12 (Homo sapiens, UniProt Q9UKR0); assay: Selectivity interaction (Serine protease panel) EUB0000735a KLK12
Sequence of Kallikrein-12 (Q9UKR0 whole entry): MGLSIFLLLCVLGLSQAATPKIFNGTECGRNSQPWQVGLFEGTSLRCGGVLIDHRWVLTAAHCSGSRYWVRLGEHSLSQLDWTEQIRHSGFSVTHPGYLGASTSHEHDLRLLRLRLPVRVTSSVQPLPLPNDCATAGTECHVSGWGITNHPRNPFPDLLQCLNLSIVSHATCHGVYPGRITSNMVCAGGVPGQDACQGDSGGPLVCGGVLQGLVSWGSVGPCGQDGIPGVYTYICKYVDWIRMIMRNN

Kallikrein-4 = Kallikrein-4 (Homo sapiens, UniProt Q9Y5K2); assay: Selectivity interaction (Serine protease panel) EUB0000735a KLK4
Kallikrein-5 = Kallikrein-5 (Homo sapiens, UniProt Q9Y337); assay: Selectivity interaction (Serine protease panel) EUB0000735a KLK5
Sequence of Kallikrein-5 (Q9Y337 whole entry): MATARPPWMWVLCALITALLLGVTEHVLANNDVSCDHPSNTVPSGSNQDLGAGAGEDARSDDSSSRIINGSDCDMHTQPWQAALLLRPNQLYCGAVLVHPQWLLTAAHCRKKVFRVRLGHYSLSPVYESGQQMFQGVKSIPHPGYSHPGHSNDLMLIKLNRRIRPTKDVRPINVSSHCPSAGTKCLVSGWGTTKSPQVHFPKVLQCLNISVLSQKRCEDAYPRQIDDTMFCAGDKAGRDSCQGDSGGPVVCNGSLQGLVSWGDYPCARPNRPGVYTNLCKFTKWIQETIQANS

Kallikrein-7 = Kallikrein-7 (Homo sapiens, UniProt P49862); assay: Selectivity interaction (Serine protease panel) EUB0000735a KLK7
Sequence of Kallikrein-7 (P49862 whole entry): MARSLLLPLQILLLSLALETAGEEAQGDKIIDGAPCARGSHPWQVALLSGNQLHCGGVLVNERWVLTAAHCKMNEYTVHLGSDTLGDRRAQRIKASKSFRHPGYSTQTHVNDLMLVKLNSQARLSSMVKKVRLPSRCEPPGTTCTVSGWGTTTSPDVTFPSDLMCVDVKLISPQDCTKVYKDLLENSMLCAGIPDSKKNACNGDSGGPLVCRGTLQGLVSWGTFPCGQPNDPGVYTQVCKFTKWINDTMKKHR

Plasma kallikrein = Plasma kallikrein (Homo sapiens, UniProt P03952); assay: Selectivity interaction (Serine protease panel) EUB0000735a KLKB1
Plasminogen = Plasminogen (Homo sapiens, UniProt P00747); assay: Selectivity interaction (Serine protease panel) EUB0000735a PLG
Serine protease 1 = Serine protease 1 (Homo sapiens, UniProt P07477); assay: Selectivity interaction (Serine protease panel) EUB0000735a PRSS1
Dipeptidyl peptidase 2 = Dipeptidyl peptidase 2 (Homo sapiens, UniProt Q9UHL4); assay: Selectivity interaction (Serine protease panel) EUB0000735a DPP7
Dipeptidyl peptidase 4 = Dipeptidyl peptidase 4 (Homo sapiens, UniProt P27487); assay: Selectivity interaction (Serine protease panel) EUB0000735a DPP4
Prolyl endopeptidase FAP = Prolyl endopeptidase FAP (Homo sapiens, UniProt Q12884); assay: Selectivity interaction (Serine protease panel) EUB0000735a FAP
Sequence of Prolyl endopeptidase FAP (Q12884 whole entry): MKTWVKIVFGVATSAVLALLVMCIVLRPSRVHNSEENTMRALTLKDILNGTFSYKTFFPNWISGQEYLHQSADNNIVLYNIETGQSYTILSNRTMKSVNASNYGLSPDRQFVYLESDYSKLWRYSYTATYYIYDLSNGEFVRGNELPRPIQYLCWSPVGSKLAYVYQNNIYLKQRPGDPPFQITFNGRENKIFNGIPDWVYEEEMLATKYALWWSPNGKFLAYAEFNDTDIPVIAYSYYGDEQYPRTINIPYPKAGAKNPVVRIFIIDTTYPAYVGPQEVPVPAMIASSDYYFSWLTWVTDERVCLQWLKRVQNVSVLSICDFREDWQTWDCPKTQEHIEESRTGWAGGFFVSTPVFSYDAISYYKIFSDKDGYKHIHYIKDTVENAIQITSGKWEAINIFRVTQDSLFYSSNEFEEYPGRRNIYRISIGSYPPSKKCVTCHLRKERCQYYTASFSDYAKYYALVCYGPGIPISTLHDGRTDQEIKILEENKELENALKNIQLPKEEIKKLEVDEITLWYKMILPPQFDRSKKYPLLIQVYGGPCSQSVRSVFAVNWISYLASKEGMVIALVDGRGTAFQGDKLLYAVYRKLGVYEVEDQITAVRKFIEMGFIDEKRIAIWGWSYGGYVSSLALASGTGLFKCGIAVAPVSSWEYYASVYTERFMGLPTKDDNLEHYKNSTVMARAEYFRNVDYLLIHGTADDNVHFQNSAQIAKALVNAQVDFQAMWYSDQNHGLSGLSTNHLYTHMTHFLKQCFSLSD

[6] = target: cAMP-dependent protein kinase catalytic subunit beta (Homo sapiens) (UniProt P22694); assay: Selectivity interaction (KinomeScan (DiscoverX)) EUB0000735a PRKACB; settings: at 1 µM
[7] = target: cGMP-dependent protein kinase 1 (Homo sapiens) (UniProt Q13976); assay: Selectivity interaction (KinomeScan (DiscoverX)) EUB0000735a PRKG1; settings: at 1 µM
D(2) dopamine receptor = D(2) dopamine receptor (Homo sapiens, UniProt P14416); assay: Selectivity interaction (GPCR panel (PDSP screen)) EUB0000725a DRD2; settings: at 10 µM
[8] = target: Macrophage metalloelastase (Homo sapiens, UniProt P39900); assay: Selectivity interaction (MMPs panel (Panlabs panel, Bayer)) EUB0000725a MMP12
Collagenase 3 = Collagenase 3 (Homo sapiens, UniProt P45452); assay: Selectivity interaction (MMPs panel (Panlabs panel, Bayer)) EUB0000725a MMP13
Interstitial collagenase = Interstitial collagenase (Homo sapiens, UniProt P03956); assay: Selectivity interaction (MMPs panel (Panlabs panel, Bayer)) EUB0000725a MMP1
[9] = target: Matrix metalloproteinase-14 (Homo sapiens, UniProt P50281); assay: Selectivity interaction (MMPs panel (Panlabs panel, Bayer)) EUB0000725a MMP14
[10] = target: 72 kDa type IV collagenase (Homo sapiens, UniProt P08253); assay: Selectivity interaction (MMPs panel (Panlabs panel, Bayer)) EUB0000725a MMP2
Sequence of 72 kDa type IV collagenase (P08253 whole entry): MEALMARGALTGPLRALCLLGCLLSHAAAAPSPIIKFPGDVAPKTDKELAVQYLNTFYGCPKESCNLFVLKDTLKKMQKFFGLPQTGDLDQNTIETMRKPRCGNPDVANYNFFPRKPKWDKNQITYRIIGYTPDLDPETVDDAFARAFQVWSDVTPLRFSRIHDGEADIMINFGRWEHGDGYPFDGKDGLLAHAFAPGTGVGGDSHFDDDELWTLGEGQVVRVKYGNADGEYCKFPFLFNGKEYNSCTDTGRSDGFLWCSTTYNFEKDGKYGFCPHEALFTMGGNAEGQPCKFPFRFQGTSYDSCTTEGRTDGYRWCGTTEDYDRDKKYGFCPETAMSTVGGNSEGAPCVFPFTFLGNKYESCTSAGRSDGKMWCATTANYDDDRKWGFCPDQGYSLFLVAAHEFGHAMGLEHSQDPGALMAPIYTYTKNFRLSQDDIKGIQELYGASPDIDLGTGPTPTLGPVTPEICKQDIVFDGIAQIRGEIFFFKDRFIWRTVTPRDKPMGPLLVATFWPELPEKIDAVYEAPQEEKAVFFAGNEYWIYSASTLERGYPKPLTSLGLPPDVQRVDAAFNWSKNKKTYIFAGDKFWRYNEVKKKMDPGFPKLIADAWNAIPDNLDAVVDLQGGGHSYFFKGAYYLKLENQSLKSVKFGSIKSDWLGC

Stromelysin-1 = Stromelysin-1 (Homo sapiens, UniProt P08254); assay: Selectivity interaction (MMPs panel (Panlabs panel, Bayer)) EUB0000725a MMP3
Matrilysin = target: T3, Matrilysin (Homo sapiens, UniProt P09237); assay: Selectivity interaction (MMPs panel (Panlabs panel, Bayer)) EUB0000725a MMP7
T3 sequence (P09237 whole entry): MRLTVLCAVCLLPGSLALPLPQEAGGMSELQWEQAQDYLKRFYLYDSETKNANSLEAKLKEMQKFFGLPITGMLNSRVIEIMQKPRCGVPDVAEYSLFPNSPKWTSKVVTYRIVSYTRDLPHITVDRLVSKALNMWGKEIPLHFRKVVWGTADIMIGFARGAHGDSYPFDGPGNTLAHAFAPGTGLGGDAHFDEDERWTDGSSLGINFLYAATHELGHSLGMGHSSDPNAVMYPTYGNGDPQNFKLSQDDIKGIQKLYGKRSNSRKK

Neutrophil collagenase = Neutrophil collagenase (Homo sapiens, UniProt P22894); assay: Selectivity interaction (MMPs panel (Panlabs panel, Bayer)) EUB0000725a MMP8
Sequence of Neutrophil collagenase (P22894 whole entry): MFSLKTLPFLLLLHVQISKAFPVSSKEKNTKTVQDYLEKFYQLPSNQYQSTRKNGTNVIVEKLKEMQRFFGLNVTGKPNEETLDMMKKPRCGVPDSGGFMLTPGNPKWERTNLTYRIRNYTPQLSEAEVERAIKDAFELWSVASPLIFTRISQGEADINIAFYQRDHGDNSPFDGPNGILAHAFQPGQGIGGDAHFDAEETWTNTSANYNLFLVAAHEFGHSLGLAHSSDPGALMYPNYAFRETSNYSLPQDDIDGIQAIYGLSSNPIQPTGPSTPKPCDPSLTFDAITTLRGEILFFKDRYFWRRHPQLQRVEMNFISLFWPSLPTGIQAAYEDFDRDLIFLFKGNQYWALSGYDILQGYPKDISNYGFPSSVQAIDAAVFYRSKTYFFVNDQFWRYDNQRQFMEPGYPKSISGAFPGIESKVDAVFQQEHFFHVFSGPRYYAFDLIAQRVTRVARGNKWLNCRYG

[11] = target: Matrix metalloproteinase-9 (Homo sapiens, UniProt P14780); assay: Selectivity interaction (MMPs panel (Panlabs panel, Bayer)) EUB0000725a MMP9
[12] = target: Uncharacterized serine/threonine-protein kinase SBK3 (Homo sapiens) (UniProt P0C264); assay: Selectivity interaction (KinomeScan (DiscoverX)) EUB0000725a SBK3; settings: at 10 µM
Sequence of Uncharacterized serine/threonine-protein kinase SBK3 (Homo sapiens) (P0C264 whole entry, canonical isoform): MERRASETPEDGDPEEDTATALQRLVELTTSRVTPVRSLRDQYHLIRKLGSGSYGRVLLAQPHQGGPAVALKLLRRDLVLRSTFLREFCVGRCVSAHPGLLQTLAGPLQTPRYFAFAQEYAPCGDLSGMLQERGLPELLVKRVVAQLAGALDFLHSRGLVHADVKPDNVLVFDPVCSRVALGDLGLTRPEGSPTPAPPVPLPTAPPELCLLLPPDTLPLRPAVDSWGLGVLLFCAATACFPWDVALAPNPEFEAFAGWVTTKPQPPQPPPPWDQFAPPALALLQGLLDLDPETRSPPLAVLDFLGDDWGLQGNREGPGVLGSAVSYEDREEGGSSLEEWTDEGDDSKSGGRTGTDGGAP

[13] = target: Phosphatidylinositol 4,5-bisphosphate 3-kinase catalytic subunit alpha isoform (Homo sapiens, UniProt P42336); assay: Selectivity interaction (KinomeScan (DiscoverX)) EUB0000725a PIK3CA; settings: at 10 µM

- Ki [1]: 0.25 µM
- % of control [2]: 29%
- % of control [3]: 32%
Structure (SMILES): NS(=O)(=O)c1cc(NC(=O)C2(c3ccccc3Cl)CC2)ccc1Oc1cccc(Cl)c1 [BAY-207]

- Ki [4]: 0.224 µM
Structure (SMILES): CCNC(=O)c1cc2c(N3CCOC[C@@H]3C)ccnc2n1C

- IC50 [5]: > 30 µM
- IC50 (Chymase): > 30 µM
- IC50 (Chymotrypsin-C): > 30 µM
- IC50 (Cathepsin G): > 30 µM
- IC50 (Coagulation factor XI): > 30 µM
- IC50 (Coagulation factor VII): > 30 µM
- IC50 (Coagulation factor IX): > 30 µM
- IC50 (Kallikrein-1): > 30 µM
- IC50 (Kallikrein-12): > 30 µM
- IC50 (Kallikrein-4): > 30 µM
- IC50 (Kallikrein-5): > 30 µM
- IC50 (Kallikrein-7): > 30 µM
- IC50 (Plasma kallikrein): > 30 µM
- IC50 (Plasminogen): > 30 µM
- IC50 (Serine protease 1): > 30 µM
- IC50 (Dipeptidyl peptidase 2): > 30 µM
- IC50 (Dipeptidyl peptidase 4): > 30 µM
- IC50 (Prolyl endopeptidase FAP): > 30 µM
- % of control [6]: 48.7%
- % of control [7]: 45.5%
Structure (SMILES): CC(=O)C1=C(C)N(c2cccc(C(F)(F)F)c2)C(=O)N[C@@H]1c1ccc(C#N)nc1 [BAY-678]

- % of inhibition (D(2) dopamine receptor): 30%
- IC50 [8]: > 10 µM
- IC50 (Collagenase 3): > 10 µM
- IC50 (Interstitial collagenase): > 10 µM
- IC50 [9]: > 10 µM
- IC50 [10]: > 10 µM
- IC50 (Stromelysin-1): > 10 µM
- IC50 (Matrilysin): > 10 µM
- IC50 (Neutrophil collagenase): > 10 µM
- IC50 [11]: > 10 µM
- % of control [12]: 43%
- % of control [13]: 34%
Structure (SMILES): O=C(O)[C@@H]1[C@@H](Cn2nnc3ccccc3c2=O)CC[C@H]1C(=O)c1ccc(OCCC2CCOCC2)cc1 [BAY-694]

From ChEMBL document CHEMBL5212743, “Selectivity Literature for EUbOPEN Chemogenomics Library wave 3” (2023)
